Laboratory results: US20130029909A1, “TREATMENT OF CANCER” (priority 2009, published 2013)
Like-named read-outs stand apart in the source and are kept apart here.

Assays:
H1299 cells [1] = assay: H1299 human NSCLC xenograft model in nu/nu mice; conditions: for median tumor volume (MTV) of survivors: D74, gemcitabine 120 mg/kg (five TFS), docetaxel 30 mg/kg (two D74 survivors); for tumor-free survival (TFS): 74 days post first treatment, CRLX101 10 mg/kg qwk×3, gemcitabine 120 mg/kg q3d×4, topotecan 12 mg/kg q4d×3
Procedure: (§1) Animals were randomly divided into seven groups and treatment was started on day-15 post implantation, when the mean tumor volume was approximately 115 mm^3.
(§2) Body weight was measured daily on Days 1-5, then twice weekly until the completion of the study. Tumor volume was measured twice weekly and each animal was euthanized when the calculated tumor volume reached the 2000 mm^3 endpoint, or on day-88 post implantation, whichever came first.

H1299 cells [2] = conditions: mouse, in vivo
Procedure: as §1, §2

[3] = tested on: human ovarian carcinoma A2780 cells; conditions: 72 h, MTS
Procedure: The human ovarian carcinoma A2780 cells were obtained from the American Type Culture Collection. […] The medium was replaced with fresh medium containing the test compound at concentrations ranging from 0.01 nmol/L to 1 μmol/L. Triplicate wells per plate were treated at each concentration. Controls were vehicle-treated cells and medium only blank. […] MTS assay reagent was prepared by diluting CellTiter 96 AQueous One Solution (Promega) 5-fold into PBS/glucose (4.5 g/L). Cell culture medium was aspirated and 100 μL of MTS reagent were added to each well. Plates were incubated at 37° C. for 1 h. The plates were shaken for 5 min and the absorbance was measured at 485 nm using a [sequence]uor Plus plate reader (Tecan). The percentage of cell survival was calculated relative to untreated cells, and IC50s were estimated from the graphs of log dose (nmol/L) versus % cell survival (GraphPad Prizm).

| Compound | median tumor volume (MTV) of survivors (H1299 cells [1]) [mm3] | BW Nadir (lowest group mean body weight, as % change from Day 1) (H1299 cells [2]) [%] | tumor-free survival (TFS) (H1299 cells [1]) [%] | also measured |
| --- | --- | --- | --- | --- |
| CC(=O)O[C@@]12CO[C@@H]1C[C@H](O)[C@@]1(C)C(=O)[C@H](O)C3=C(C)[C@@H](OC(=O)[C@H](O)[C@@H](NC(=O)OC(C)(C)C)c4ccccc4)C[C@@](O)([C@@H](OC(=O)c4ccccc4)[C@H]21)C3(C)C [Docetaxel, docetaxel] | 302 | – | – | group mean body weight loss (H1299 cells [1]; docetaxel 30 mg/kg on D21): 9.3%; survival (H1299 cells [1]; docetaxel 30 mg/kg qwk×3, D74, no TFS): 20%; BW Nadir (lowest group mean body weight, as % change from Day 1) (H1299 cells [1]; same regimens as E168, '—' indicates that no decrease in mean body weight was observed): −9.3% |
| C#Cc1cccc(Nc2ncnc3cc(OCCOC)c(OCCOC)cc23)c1 [Erlotinib, erlotinib] | – | −2.9 | – | – |
| Nc1ccn([C@@H]2O[C@H](CO)[C@@H](O)C2(F)F)c(=O)n1 [Gemcitabine, gemcitabine] | 0 | −2.3 | 50 | – |
| CCc1c2c(nc3ccc(O)cc13)-c1cc3c(c(=O)n1C2)COC(=O)[C@]3(O)CC [SN-38, 20(S)-7-ethyl-10-hydroxycamptothecin] | – | – | – | IC50 [3]: 2.44 nM |
| CC[C@@]1(O)C(=O)OCc2c1cc1n(c2=O)Cc2cc3c(CN(C)C)c(O)ccc3nc2-1 [Topotecan, topotecan] | – | −0.6 | 10 | – |
